Assay: drug substance degradation on hot melt extrusion
Format: physicochemical
Details: hot melt extrusion at a temperature of 165° C.
Experimental: Compound 1, Compound 2 and ritonavir were extruded using melt-extrusion. 31 g of copovidone, 3.5 g of vitamin E TPGS and 1.0 g of propylene glycol monolaurate were granulated for 2 minutes in a mill. After two hours, the mixture was blended with 5.09 g of ritonavir, 1.27 g of Compound 2, 7.64 g of Compound 1 and 0.5 g colloidal silica for 2 minutes in a blender and subsequently sieved over a 1.0 mm mesh sieve. The mixture was extruded on a Haake/Thermo Fisher extruder at 165° C. at a screw speed of 30 rpm. The extrudate thus prepared contained 15% Compound 1, 10% ritonavir, 2.5% Compound 2, 62% copovidone, 1% colloidal silica (areosil 200), 7% vitamin E TPGS, and 2% propylene glycol monolaurate.
The tablet was also tested for stability. […] The degradation of each drug substance after melt extrusion was within the specifications.

ritonavir degradation when co-extruded with Compound 1 and Compound 2: well within the acceptable levels
Compound: CC(C)c1nc(CN(C)C(=O)N[C@H](C(=O)N[C@@H](Cc2ccccc2)C[C@H](O)[C@H](Cc2ccccc2)NC(=O)OCc2cncs2)C(C)C)cs1 [ritonavir]
